Here are results for twelve molecules from patent US9346786B2, “Pyrrolidine compounds” (Hoffmann-La Roche Inc., priority 2009, dated 2016).

In one test the target is recombinant human NK3 receptor (Homo sapiens (Human), UniProt P29371). Briefly: biochemical. The test is classed as binding. Particulars: [3H]SR142801, membranes of HEK293 cells transiently expressing recombinant human NK3 receptor; read-out: Data Ki (hNK-3 receptor affinity).
recombinant human NK3 receptor, sequence (P29371 whole entry): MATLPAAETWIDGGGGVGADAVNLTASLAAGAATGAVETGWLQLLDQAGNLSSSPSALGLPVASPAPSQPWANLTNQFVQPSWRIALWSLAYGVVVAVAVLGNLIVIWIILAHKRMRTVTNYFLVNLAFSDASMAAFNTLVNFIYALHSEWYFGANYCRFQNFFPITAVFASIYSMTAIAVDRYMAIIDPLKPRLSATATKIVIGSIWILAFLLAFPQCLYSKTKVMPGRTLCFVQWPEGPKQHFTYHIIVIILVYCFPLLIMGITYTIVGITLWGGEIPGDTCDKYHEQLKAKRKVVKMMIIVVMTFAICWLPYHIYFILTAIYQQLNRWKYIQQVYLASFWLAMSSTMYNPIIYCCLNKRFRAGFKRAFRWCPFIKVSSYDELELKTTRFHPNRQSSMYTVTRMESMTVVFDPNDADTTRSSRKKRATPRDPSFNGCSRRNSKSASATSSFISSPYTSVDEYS
Turning to `CCN(C(=O)Oc1ccc(F)cc1)[C@@H]1CN(C(=O)C2CCN(c3ccc(C(C)=O)cn3)CC2)C[C@H]1c1ccc(F)c(F)c1` [Example 60, [(3S,4R)-1-(5′-Acetyl-3,4,5,6-tetrahydro-2H-[1,2′]bipyridinyl-4-carbonyl)-4-(3,4-difluoro-phenyl)-pyrrolidin-3-yl]-ethyl-carbamic acid 4-fluoro-phenyl ester], the Ki was 4 nM.

Take `CCN(C(=O)Oc1ccc(F)cc1)[C@@H]1CN(C(=O)C2CCN(C(=O)c3ccc(C(F)(F)F)cn3)CC2)C[C@H]1c1ccc(Cl)cc1` [Example 101, {(3S,4R)-4-(4-Chloro-phenyl)-1-[1-(5-trifluoromethyl-pyridine-2-carbonyl)-piperidine-4-carbonyl]-pyrrolidin-3-yl}-ethyl-carbamic acid 4-fluoro-phenyl ester]: the Ki came out at 42.5 nM. Regarding `CCN(C(=O)Oc1ccc(F)cc1)[C@@H]1CN(C(=O)C2CCN(c3ccc(C(C)=O)cn3)CC2)C[C@H]1c1ccc(Cl)cc1` [Example 14, [(3S,4R)-1-(5′-Acetyl-3,4,5,6-tetrahydro-2H-[1,2′]bipyridinyl-4-carbonyl)-4-(4-chloro-phenyl)-pyrrolidin-3-yl]-ethyl-carbamic acid 4-fluoro-phenyl ester], the Ki turned out to be 3 nM. Still for that read-out and setting: as for `CCN(C(=O)Oc1ccc(F)cc1)[C@@H]1CN(C(=O)C2CCN(c3ccc(C(N)=O)cn3)CC2)C[C@H]1c1ccc(Cl)cc1` [Example 111, [(3S,4R)-1-(5′-Carbamoyl-3,4,5,6-tetrahydro-2H-[1,2′]bipyridinyl-4-carbonyl)-4-(4-chloro-phenyl)-pyrrolidin-3-yl]-ethyl-carbamic acid 4-fluoro-phenyl ester], the figure is 7.4 nM; as for `CCN(C(=O)Oc1ccc(F)cc1)[C@@H]1CN(C(=O)C2CCN(C(=O)c3ccc(C#N)cc3)CC2)C[C@H]1c1ccc(Cl)c(F)c1` [Example 76, {(3S,4R)-4-(4-Chloro-3-fluoro-phenyl)-1-[1-(4-cyano-benzoyl)-piperidine-4-carbonyl]-pyrrolidin-3-yl}-ethyl-carbamic acid 4-fluoro-phenyl ester], 17 nM. The same measure, in the same setting: the figure for `CC(C)N(C(=O)Oc1ccc(F)cc1)[C@@H]1CN(C(=O)C2CCN(c3ccc(C(F)(F)F)cn3)CC2)C[C@H]1c1ccc(Cl)cc1` [Example 25, [(3S,4R)-4-(4-Chloro-phenyl)-1-(5′-trifluoromethyl-3,4,5,6-tetrahydro-2H-[1,2′]bipyridinyl-4-carbonyl)-pyrrolidin-3-yl]-isopropyl-carbamic acid 4-fluoro-phenyl ester] is 112 nM.

For the molecule `CCN(C(=O)Oc1ccc(F)cc1)[C@@H]1CN(C(=O)C2CCN(C(=O)c3ccc(F)cn3)CC2)C[C@H]1c1ccc(Cl)c(F)c1` [Example 75, {(3S,4R)-4-(4-Chloro-3-fluoro-phenyl)-1-[1-(5-fluoro-pyridine-2-carbonyl)-piperidine-4-carbonyl]-pyrrolidin-3-yl}-ethyl-carbamic acid 4-fluoro-phenyl ester], the Ki was 3 nM. Consider `CCN(C(=O)Oc1ccc(F)cc1)[C@@H]1CN(C(=O)C2CCN(c3ccc(Cl)cn3)CC2)C[C@H]1c1ccc(F)c(Cl)c1` [Example 118, [(3S,4R)-4-(3-Chloro-4-fluoro-phenyl)-1-(5′-chloro-3,4,5,6-tetrahydro-2H-[1,2′]bipyridinyl-4-carbonyl)-pyrrolidin-3-yl]-ethyl-carbamic acid 4-fluoro-phenyl ester], for which the inhibition constant Ki came out at 1.8 nM.

Still in this test, the particulars now being: read-out: Data Ki (hNK-3 receptor affinity).
For the molecule `CCN(C(=O)Oc1ccc(F)cc1)[C@@H]1CN(C(=O)C2CCN(C(=O)C3CC(F)C3)CC2)C[C@H]1c1ccc(Cl)cc1` (stereo partly drawn) [Example 89, {(3S,4R)-4-(4-Chloro-phenyl)-1-[1-(3-fluoro-cyclobutanecarbonyl)-piperidine-4-carbonyl]-pyrrolidin-3-yl}-ethyl-carbamic acid 4-fluoro-phenyl ester], the Ki was 3.3 nM. On the same count and under the same terms, as for `CCN(C(=O)Oc1ccc(F)cc1)[C@@H]1CN(C(=O)C2CCN(c3ccc(C(F)(F)F)cn3)CC2)C[C@H]1c1ccc(Cl)cc1` [Example 20, [(3S,4R)-4-(4-Chloro-phenyl)-1-(5′-trifluoromethyl-3,4,5,6-tetrahydro-2H-[1,2′]bipyridinyl-4-carbonyl)-pyrrolidin-3-yl]-ethyl-carbamic acid 4-fluoro-phenyl ester], the figure is 3 nM. On to `CCN(C(=O)Oc1ccc(F)cc1)[C@@H]1CN(C(=O)C2CCN(C(=O)C3(COC)CC3)CC2)C[C@H]1c1ccc(Cl)cc1` [Example 99, {(3S,4R)-4-(4-Chloro-phenyl)-1-[1-(1-methoxymethyl-cyclopropanecarbonyl)-piperidine-4-carbonyl]-pyrrolidin-3-yl}-ethyl-carbamic acid 4-fluoro-phenyl ester], for which the Ki turned out to be 4.7 nM.

Tested on in another test: not given
Assay: not given
As to conditions: phase II trial; cited from earlier work.
Take `CC(=O)N(C)C1(c2ccccc2)CCN(CCC[C@]2(c3ccc(Cl)c(Cl)c3)CCCN(C(=O)c3ccccc3)C2)CC1` [SR 142,801, Osanetant]: the “activity on negative symptoms of schizophrenia” value was “inactive in the treatment of negative symptoms” and the “activity on positive symptoms of schizophrenia” value is listed as “active on positive symptoms of schizophrenia”.

In general, Ki refers to a dissociation constant, usually derived from enzyme kinetics or from competition with a known ligand.
